Assays:
Experiment in all cases: Viability curves to CDDP, resistant vs sensitive subtype
Type in all cases: cell-based
[1] = test system: 41M/41MR ovarian cancer cell lines; settings: IC50 of resistant cell line/IC50 of sensitive cell line; 41MR vs 41M; p<0.001
Description: (§1) FIG. 1. Viability curves to CDDP and CBDCA. The curves show CDDP resistance of cells (A) H23R, (B) H460R, (C) A2780R and (D) 41MR; and to CBDCA of cells (E) H23R-CBDCA and (F) A2780R-CBDCA. The data was normalized with respect to the untreated control, which was established as 100%. IC50 is the concentration that induces the death of 50% of the cell population. The resistance index (IR) is calculated as IC50 of the resistant cell line/IC50 of the sensitive cell line. P<0.001 was considered a significant change in drug sensitivity (Student's t test).
(§2) Cell Culture Lung and ovarian cancer cell lines H23, H460, H1299, H727, A2780 and OVCAR3 were purchased from the ATCC (Manassas, Va.) or ECACC (Sigma-Aldrich, Spain). All of them were maintained in RPMI supplemented with 10% exosome-depleted FBS, except for OVCAR3 which was cultured in RPMI with 20% exosome-depleted FBS. FBS was depleted of bovine exosomes by ultracentrifugation at 100,000×g for 16 h at 4° C. The CDDP-resistant variants H23R, H460R, A2780R and OVCAR3R, and the carboplatin-resistant variants H23R-CBDCA and A2780R-CBDCA were established by exposing cells to increasing doses of each platinum-based drug as described. The CDDP sensitive and resistant ovarian cancer cell lines 41M and 41MR were provided by Dr. Kelland (UK) and maintained in DMEM supplemented with 10% exosome-depleted FBS.
(§3) To determine whether cisplatin-resistant cells transmit their resistance through exosomes we used matched CDDP-sensitive/resistant lung cancer and ovarian cell lines H23S/H23R, H460S/H460R, A2780S/A2780R and 41M/41MR and, that we established previously (Ibanez de Caceres, I. et al. IGFBP-3 hypermethylation-derived deficiency mediates cisplatin resistance in non-small-cell lung cancer. Oncogene 29, 1681-1690 (2010); Vera, O. et al. DNA Methylation of miR-7 is a Mechanism Involved in Platinum Response through MAFG Overexpression in Cancer Cells. Theranostics 7, 4118-4134 (2017)). […] We then isolated exosomes from resistant subtypes H23R, H460R, 41MR and A2780R and confirmed their proper size (around 100 nm) using electron microscopy and NanoSight analysis (FIGS. 2A and B) Once we have confirmed that our samples were successfully enriched in exosomes, we wanted to assess if exosomes from cisplatin-resistant cells could alter the drug response of sensitive cells. For that purpose, firstly, we examined whether exosomes isolated from CDDP resistant subtypes were taken up by sensitive parental cells, we labelled exosomes with PKH26 and exposed them to sensitive cells. The analysis using flow cytometry confirmed the uptake of resistant exosomes in more than 77% of sensitive cells H23S, 41M and A2780S compared with PBS control (FIG. 3).

[2] = test system: A2780S/A2780R ovarian cancer cell lines; settings: IC50 of resistant cell line/IC50 of sensitive cell line, p<0.001
Description: as §1, §2, §3

[3] = test system: H23S/H23R lung cancer cell lines; settings: IC50 of resistant cell line/IC50 of sensitive cell line, p<0.001
Description: as §1, §2, §3

[4] = test system: H460S/H460R lung cancer cell lines; settings: IC50 of resistant cell line/IC50 of sensitive cell line, p<0.001
Description: as §1, §2, §3

N.N.[Cl][Pt][Cl] [cisplatin]
Resistant-Index (RI) [1]: 4.26
Resistant-Index (RI) [2]: 2.11
Resistant-Index (RI) [3]: 2.77
Resistant-Index (RI) [4]: 2.49
